From publication PMC4076210, “Discovery of Novel AKT Inhibitors with Enhanced Anti-Tumor Effects in Combination with the MEK Inhibitor” (PLoS ONE, 2014)
Read-outs that look alike come from different tables or passages of the source.

Legend:
Assay type in all cases: biochemical
TrkB(h) = biological target: T1, TrkB(h) (Homo sapiens, UniProt Q16620); test: Kinase panel
T1 construct: purchased Millipore KinaseProfiler

MKK7β(h) = biological target: T2, MKK7β(h) (Homo sapiens, UniProt O14733); test: Kinase panel
T2 construct: purchased Millipore KinaseProfiler
T2 sequence (O14733 1-419): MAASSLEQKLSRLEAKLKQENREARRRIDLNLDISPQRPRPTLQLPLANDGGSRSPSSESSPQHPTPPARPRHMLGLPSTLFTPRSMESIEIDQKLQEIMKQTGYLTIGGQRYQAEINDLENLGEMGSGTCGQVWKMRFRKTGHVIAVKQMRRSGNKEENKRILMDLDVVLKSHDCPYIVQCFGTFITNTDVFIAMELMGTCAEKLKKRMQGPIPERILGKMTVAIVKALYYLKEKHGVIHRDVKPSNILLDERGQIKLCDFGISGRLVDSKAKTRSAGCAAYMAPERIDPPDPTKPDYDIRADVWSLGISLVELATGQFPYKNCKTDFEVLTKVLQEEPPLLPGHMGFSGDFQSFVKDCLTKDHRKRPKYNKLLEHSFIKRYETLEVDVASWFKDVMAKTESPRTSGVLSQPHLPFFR

ZAP-70(h) = biological target: T3, ZAP-70(h) (Homo sapiens, UniProt P43403); test: Kinase panel
T3 construct: purchased Millipore KinaseProfiler
T3 sequence (P43403 1-619): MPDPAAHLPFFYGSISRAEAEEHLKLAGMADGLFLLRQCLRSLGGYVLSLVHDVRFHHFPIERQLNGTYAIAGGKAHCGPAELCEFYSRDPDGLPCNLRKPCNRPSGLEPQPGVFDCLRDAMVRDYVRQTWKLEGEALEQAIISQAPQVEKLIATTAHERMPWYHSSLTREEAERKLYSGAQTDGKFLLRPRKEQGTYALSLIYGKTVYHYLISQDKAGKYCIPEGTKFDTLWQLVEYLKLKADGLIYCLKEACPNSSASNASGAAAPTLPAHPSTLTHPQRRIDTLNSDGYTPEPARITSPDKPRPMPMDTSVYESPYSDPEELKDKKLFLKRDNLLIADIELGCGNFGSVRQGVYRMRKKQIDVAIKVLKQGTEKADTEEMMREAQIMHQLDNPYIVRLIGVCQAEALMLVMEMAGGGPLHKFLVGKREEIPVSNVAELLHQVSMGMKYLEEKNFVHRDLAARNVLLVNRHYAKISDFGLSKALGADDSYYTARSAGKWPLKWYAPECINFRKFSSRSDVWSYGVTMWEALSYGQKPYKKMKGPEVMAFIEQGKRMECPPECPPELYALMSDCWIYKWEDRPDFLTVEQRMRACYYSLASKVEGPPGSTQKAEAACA

cKit(V654A)(h) = biological target: T4, cKit(V654A)(h) (Homo sapiens, UniProt P10721, V654A); test: Kinase panel
T4 construct: purchased Millipore KinaseProfiler

ZIPK(h) = biological target: T5, ZIPK(h) (Homo sapiens, UniProt O43293); test: Kinase panel
T5 construct: purchased Millipore KinaseProfiler

EphA7(h) = biological target: T6, EphA7(h) (Homo sapiens, UniProt Q15375); test: Kinase panel
T6 construct: purchased Millipore KinaseProfiler

Abl(Y253F)(h) = biological target: T7, Abl(Y253F)(h) (Homo sapiens, UniProt P00519, Y253F); test: Kinase panel
T7 construct: purchased Millipore KinaseProfiler

SIK(h) = biological target: T8, SIK(h) (Homo sapiens, UniProt P57059); test: Kinase panel
T8 construct: purchased Millipore KinaseProfiler

PKG1β(h) = biological target: T9, PKG1β(h) (Homo sapiens, UniProt Q13976); test: Kinase panel
T9 construct: purchased Millipore KinaseProfiler
T9 sequence (Q13976 1-686 isoform Q13976-2): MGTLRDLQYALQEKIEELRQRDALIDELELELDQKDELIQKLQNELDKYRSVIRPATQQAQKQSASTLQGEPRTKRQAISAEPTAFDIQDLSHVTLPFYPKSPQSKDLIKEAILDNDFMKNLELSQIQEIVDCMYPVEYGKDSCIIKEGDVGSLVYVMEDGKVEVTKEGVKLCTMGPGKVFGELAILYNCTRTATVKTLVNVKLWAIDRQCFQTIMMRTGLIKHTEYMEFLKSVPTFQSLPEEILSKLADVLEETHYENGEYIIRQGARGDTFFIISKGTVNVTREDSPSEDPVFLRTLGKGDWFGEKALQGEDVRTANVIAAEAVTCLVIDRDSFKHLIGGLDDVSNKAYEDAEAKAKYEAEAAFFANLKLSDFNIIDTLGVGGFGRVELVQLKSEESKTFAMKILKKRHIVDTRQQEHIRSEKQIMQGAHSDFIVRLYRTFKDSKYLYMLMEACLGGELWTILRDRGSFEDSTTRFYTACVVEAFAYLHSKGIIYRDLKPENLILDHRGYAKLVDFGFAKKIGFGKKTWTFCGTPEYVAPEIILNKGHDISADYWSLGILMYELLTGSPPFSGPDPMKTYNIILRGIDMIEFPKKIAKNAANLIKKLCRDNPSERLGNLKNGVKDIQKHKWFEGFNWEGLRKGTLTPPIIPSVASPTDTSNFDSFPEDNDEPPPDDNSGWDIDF

PASK(h) = biological target: T10, PASK(h) (Homo sapiens, UniProt Q96RG2); test: Kinase panel
T10 construct: purchased Millipore KinaseProfiler

PAR-1Bα(h) = biological target: T11, PAR-1Bα(h) (Homo sapiens, UniProt Q7KZI7); test: Kinase panel
T11 construct: purchased Millipore KinaseProfiler

EphA5(h) = biological target: T12, EphA5(h) (Homo sapiens, UniProt P54756); test: Kinase panel
T12 construct: purchased Millipore KinaseProfiler

PKCη = PKCη (Homo sapiens, UniProt P24723); test: Kinase IC50 assay

T5 sequence (O43293 whole entry): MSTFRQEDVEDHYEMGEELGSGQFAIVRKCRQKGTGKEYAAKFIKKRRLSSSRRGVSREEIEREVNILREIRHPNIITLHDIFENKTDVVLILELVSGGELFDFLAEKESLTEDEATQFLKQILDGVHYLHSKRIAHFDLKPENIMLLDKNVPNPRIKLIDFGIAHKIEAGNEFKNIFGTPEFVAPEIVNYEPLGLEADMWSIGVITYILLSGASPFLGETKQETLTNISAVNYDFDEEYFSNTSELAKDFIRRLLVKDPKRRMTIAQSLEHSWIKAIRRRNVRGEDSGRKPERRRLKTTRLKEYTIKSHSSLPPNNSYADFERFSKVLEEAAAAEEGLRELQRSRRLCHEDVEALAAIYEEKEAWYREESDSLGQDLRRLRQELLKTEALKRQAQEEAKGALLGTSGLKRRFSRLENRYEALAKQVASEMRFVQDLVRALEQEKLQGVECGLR
T12 sequence (P54756 25-1037): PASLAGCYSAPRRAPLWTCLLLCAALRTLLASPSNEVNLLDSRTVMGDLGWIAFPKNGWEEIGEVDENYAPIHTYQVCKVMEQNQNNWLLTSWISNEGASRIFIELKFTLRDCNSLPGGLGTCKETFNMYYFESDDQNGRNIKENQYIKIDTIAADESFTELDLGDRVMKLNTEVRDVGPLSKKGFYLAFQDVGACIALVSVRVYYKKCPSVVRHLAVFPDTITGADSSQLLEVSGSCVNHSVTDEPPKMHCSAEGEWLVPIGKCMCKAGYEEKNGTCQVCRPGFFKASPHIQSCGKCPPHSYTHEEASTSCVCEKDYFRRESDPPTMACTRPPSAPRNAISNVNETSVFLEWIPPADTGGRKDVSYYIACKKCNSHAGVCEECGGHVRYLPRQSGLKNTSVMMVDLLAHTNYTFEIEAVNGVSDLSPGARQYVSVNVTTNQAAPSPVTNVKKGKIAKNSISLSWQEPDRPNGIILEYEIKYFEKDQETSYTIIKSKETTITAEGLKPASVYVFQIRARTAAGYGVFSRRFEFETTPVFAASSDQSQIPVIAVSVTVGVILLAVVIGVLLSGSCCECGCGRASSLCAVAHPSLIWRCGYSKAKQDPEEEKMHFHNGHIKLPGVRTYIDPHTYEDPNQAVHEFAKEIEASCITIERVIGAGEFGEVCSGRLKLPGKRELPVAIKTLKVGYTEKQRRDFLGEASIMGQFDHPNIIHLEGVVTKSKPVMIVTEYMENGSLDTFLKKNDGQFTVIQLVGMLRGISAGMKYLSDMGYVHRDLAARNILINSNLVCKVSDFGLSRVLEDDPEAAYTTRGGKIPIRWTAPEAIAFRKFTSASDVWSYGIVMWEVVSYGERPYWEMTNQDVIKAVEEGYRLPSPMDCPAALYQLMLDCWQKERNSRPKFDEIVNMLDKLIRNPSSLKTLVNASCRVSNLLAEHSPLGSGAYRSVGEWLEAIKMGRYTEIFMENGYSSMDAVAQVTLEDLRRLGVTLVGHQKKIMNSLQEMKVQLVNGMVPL
T8 sequence (P57059 whole entry): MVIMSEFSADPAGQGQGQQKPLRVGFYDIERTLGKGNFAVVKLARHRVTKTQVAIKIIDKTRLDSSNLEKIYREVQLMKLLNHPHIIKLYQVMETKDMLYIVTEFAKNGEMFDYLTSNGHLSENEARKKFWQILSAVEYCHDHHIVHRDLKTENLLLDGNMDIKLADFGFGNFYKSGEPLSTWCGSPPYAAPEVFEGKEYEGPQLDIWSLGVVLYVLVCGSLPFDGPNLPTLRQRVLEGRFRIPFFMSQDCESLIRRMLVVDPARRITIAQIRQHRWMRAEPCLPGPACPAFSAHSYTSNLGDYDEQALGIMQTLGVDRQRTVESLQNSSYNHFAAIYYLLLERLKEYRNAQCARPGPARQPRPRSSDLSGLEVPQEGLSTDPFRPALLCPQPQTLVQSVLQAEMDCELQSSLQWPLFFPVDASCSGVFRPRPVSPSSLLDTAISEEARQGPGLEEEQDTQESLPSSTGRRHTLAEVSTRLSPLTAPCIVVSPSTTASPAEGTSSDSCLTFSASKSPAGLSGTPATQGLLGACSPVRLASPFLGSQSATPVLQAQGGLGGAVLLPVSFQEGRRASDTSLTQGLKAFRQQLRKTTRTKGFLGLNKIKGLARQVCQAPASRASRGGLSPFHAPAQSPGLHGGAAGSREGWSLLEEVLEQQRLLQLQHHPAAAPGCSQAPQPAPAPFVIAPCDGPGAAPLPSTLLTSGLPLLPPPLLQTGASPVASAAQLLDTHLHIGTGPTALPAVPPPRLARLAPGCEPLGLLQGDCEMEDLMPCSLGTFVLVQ
T10 sequence (Q96RG2 whole entry): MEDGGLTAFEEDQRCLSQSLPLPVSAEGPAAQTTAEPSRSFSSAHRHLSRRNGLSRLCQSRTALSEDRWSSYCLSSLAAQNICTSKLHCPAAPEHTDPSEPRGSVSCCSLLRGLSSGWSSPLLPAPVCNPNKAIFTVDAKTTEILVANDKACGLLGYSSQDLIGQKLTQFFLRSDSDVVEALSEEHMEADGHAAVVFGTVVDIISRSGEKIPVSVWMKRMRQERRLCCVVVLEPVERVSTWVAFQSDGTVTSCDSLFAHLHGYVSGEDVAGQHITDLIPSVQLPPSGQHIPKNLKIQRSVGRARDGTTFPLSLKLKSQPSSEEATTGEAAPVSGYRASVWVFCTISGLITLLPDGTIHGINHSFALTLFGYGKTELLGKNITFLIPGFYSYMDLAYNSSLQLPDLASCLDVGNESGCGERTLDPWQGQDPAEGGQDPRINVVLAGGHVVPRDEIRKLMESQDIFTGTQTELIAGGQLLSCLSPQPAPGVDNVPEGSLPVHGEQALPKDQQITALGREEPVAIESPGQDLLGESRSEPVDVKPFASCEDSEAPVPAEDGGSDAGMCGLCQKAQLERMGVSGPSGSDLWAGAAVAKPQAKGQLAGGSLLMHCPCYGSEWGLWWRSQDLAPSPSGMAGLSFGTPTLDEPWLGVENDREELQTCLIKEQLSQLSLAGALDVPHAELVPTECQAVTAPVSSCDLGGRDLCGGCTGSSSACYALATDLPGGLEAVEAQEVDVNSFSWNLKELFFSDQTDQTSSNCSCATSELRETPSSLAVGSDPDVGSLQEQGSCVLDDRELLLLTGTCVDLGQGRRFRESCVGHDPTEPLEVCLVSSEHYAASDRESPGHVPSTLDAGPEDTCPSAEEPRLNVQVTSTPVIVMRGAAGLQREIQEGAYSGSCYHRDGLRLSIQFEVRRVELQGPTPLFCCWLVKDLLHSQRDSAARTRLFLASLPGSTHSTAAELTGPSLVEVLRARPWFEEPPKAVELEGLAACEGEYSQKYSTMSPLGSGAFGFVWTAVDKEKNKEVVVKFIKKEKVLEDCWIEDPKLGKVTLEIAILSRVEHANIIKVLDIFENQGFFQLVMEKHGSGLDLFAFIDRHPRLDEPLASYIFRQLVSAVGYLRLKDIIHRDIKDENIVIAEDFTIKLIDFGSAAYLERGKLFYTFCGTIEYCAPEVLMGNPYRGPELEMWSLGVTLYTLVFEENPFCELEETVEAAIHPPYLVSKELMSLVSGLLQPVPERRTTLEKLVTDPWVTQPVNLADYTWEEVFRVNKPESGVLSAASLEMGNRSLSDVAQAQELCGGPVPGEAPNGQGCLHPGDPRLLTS
T6 sequence (Q15375 28-998): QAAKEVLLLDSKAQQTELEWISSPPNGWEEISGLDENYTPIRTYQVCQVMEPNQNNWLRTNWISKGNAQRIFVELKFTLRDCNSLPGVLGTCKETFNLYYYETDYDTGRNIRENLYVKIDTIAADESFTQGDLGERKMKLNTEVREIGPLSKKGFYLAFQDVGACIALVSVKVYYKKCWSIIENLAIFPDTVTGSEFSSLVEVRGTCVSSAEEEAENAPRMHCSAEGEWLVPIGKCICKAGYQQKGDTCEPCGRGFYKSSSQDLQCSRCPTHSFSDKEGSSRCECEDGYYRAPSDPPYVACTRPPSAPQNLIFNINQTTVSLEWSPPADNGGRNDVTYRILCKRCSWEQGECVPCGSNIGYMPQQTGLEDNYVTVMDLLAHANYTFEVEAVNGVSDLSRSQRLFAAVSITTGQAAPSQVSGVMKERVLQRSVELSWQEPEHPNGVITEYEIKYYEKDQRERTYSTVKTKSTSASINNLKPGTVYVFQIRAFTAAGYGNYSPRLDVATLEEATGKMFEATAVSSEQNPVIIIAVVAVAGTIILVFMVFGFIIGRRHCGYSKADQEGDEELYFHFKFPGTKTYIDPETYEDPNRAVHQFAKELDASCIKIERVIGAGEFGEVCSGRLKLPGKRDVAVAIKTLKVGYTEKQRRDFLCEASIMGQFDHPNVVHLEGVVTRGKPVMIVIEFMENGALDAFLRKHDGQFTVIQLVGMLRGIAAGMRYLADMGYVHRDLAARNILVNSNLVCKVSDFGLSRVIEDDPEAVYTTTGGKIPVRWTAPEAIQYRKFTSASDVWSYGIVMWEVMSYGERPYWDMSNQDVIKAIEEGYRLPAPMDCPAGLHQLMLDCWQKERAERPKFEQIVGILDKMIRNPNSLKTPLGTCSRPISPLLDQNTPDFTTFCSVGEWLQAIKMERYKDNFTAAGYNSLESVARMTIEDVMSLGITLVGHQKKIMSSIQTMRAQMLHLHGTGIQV

## Cn1ncc(Cl)c1-c1cc(C(=O)N[C@H](CN)Cc2cccc(F)c2)sc1Cl [GSK2110183]
TrkB(h)
  inhibition at 0.5 µM: 15%
  inhibition at 10 µM: 74%
MKK7β(h)
  inhibition at 0.5 µM: 12%
  inhibition at 10 µM: 28%
ZAP-70(h)
  inhibition at 0.5 µM: 8%
  inhibition at 10 µM: -2%
cKit(V654A)(h)
  inhibition at 0.5 µM: -9%
  inhibition at 10 µM: -9%
ZIPK(h)
  inhibition at 0.5 µM: 0%
  inhibition at 10 µM: 62%
EphA7(h)
  inhibition at 0.5 µM: -4%
  inhibition at 10 µM: 8%
Abl(Y253F)(h)
  inhibition at 0.5 µM: 2%
  inhibition at 10 µM: 9%
SIK(h)
  inhibition at 0.5 µM: -6%
  inhibition at 10 µM: 16%
PKG1β(h)
  inhibition at 0.5 µM: 101%
  inhibition at 10 µM: 101%
PASK(h)
  inhibition at 0.5 µM: 4%
  inhibition at 10 µM: 45%
PAR-1Bα(h)
  inhibition at 0.5 µM: 15%
  inhibition at 10 µM: 84%
EphA5(h)
  inhibition at 0.5 µM: 5%
  inhibition at 10 µM: 9%
PKCη
  IC50: 210 nM

## Cn1ncc(Cl)c1-c1cc(C(=O)N[C@H](CN)Cc2ccc(F)c(F)c2)oc1Cl [GSK2141795]
TrkB(h); 0.5 µM, read-out: % Inhibition
  inhibition at 0.5 µM: 27%
TrkB(h); 10 µM, read-out: % Inhibition
  inhibition at 10 µM: 85%
MKK7β(h); 0.5 µM, read-out: % Inhibition
  inhibition at 0.5 µM: -13%
MKK7β(h); 10 µM, read-out: % Inhibition
  inhibition at 10 µM: -30%
ZAP-70(h); 0.5 µM, read-out: % Inhibition
  inhibition at 0.5 µM: -23%
ZAP-70(h); 10 µM, read-out: % Inhibition
  inhibition at 10 µM: -24%
cKit(V654A)(h); 0.5 µM, read-out: % Inhibition
  inhibition at 0.5 µM: -2%
cKit(V654A)(h); 10 µM, read-out: % Inhibition
  inhibition at 10 µM: -3%
ZIPK(h); 0.5 µM, read-out: % Inhibition
  inhibition at 0.5 µM: 19%
ZIPK(h); 10 µM, read-out: % Inhibition
  inhibition at 10 µM: 78%
EphA7(h); 0.5 µM, read-out: % Inhibition
  inhibition at 0.5 µM: -3%
EphA7(h); 10 µM, read-out: % Inhibition
  inhibition at 10 µM: 16%
Abl(Y253F)(h); 0.5 µM, read-out: % Inhibition
  inhibition at 0.5 µM: -18%
Abl(Y253F)(h); 10 µM, read-out: % Inhibition
  inhibition at 10 µM: -11%
SIK(h); 0.5 µM, read-out: % Inhibition
  inhibition at 0.5 µM: -4%
SIK(h); 10 µM, read-out: % Inhibition
  inhibition at 10 µM: 64%
PKG1β(h); 0.5 µM, read-out: % Inhibition
  inhibition at 0.5 µM: 101%
PKG1β(h); 10 µM, read-out: % Inhibition
  inhibition at 10 µM: 100%
PASK(h); 0.5 µM, read-out: % Inhibition
  inhibition at 0.5 µM: 11%
PASK(h); 10 µM, read-out: % Inhibition
  inhibition at 10 µM: 49%
PAR-1Bα(h); 0.5 µM, read-out: % Inhibition
  inhibition at 0.5 µM: 24%
PAR-1Bα(h); 10 µM, read-out: % Inhibition
  inhibition at 10 µM: 83%
EphA5(h); 0.5 µM, read-out: % Inhibition
  inhibition at 0.5 µM: -6%
EphA5(h); 10 µM, read-out: % Inhibition
  inhibition at 10 µM: 10%
PKCη
  IC50: 49 nM
